Broadly, the fraction unbound is the share of the substance not bound to proteins or other matrix. By AUC(0-t) is commonly meant the area under the concentration-time curve up to a stated or last time point. Read a low AUC(0-t) as less exposure. Broadly, the Cmax is the maximum level reached in the sampled fluid or tissue. As a reminder, the Tmax is the time from dosing to the highest level. Usually bioavailability stands for dose-corrected exposure relative to a reference, in per cent. Broadly, the Km is the concentration of substrate that gives half-maximal velocity. In general, microsomal CLint refers to the rate of metabolic loss divided by the concentration.

Read-outs that look alike come from different tables or passages of the source.

A short description of data set [1]: Unbound fraction by rapid equilibrium dialysis. The class given is in vitro ADME, rat. Here is the method: The fractions of unbound acacetin in plasma (fuP), microsomes (fuMIC), SGF (fuSGF), and SIF(fuSIF) were measured using a rapid equilibrium dialysis device (Thermo Fisher Scientific, Inc., Waltham, MA, USA) as previously described with slight modifications. Briefly, 0.2 mL of the matrix spiked with acacetin (10 μM) was placed into the “sample” chamber, and 0.4 mL of PBS was placed into the adjacent “buffer” chamber. The fractions of unbound acacetin were calculated as the concentration ratio between the two chambers. The blood-to-plasma concentration ratio (RB) of acacetin was determined as described previously. Briefly, 1-mL blood spiked with acacetin (1 μM) was incubated at 37 °C for 30 min. The blood sample was centrifuged at 2000× g for 5 min to prepare the plasma sample. The concentrations of acacetin in the aforementioned plasma and buffer samples were measured using the LC-MS/MS method.
For orientation: In equilibrium dialysis free small molecules cross a membrane that holds back macromolecules.

Data set [2] is described as follows: Stability in phosphate buffers, plasma, RLM, SGF and SIF. The class given is physicochemical. The conditions noted are these: for Initially spiked amount remaining after 24 h: 10 μM. Here is the method:
The stability of acacetin was determined in several matrices such as phosphate buffers (pH 1.0, 3.0, 5.0, 7.0, 9.0, 11.0, and 13.0), plasma, RLM, SGF, and SIF. The samples spiked with acacetin (10 μM) were incubated at 37 °C, and 120 μL aliquots of the samples were collected at 0, 15, 30, 60, 120, 180, 240, 360, 420, 600, and 1440 min. The collected samples were diluted with acetonitrile to obtain a proper concentration and analyzed by the LC-MS/MS method.

A short description of data set [3]: Oral pharmacokinetic study in rats. Format: in vivo. Here is the method:
The rats were fasted overnight before the experiment and anesthetized using an intramuscular injection of zoletil at 20 mg/kg. The femoral artery and vein were cannulated with a polyethylene tube (Clay Adams, Parsippany, NJ, USA). Acacetin (dissolved in a vehicle composed of DMSO, ethanol, and PEG400 (10:5:85, v/v/v)) was administered intravenously (10 mg/kg) or orally (100 mg/kg) to rats. Approximately 250 μL of blood was collected via the femoral artery at 0, 2, 5, 15, 30, 45, 60, 120, and 180 min after intravenous administration and at 0, 2, 5, 15, 30, 45, 60, 90, 120, and 180 min after oral administration. The cannula was flushed with heparin (20 IU/mL in saline) at each time point to prevent blood clotting. Following centrifugation of the blood sample at 8000× g and 4 °C for 2 min, 120 μL of plasma was obtained. Urine was collected at 1-h intervals in an ice-cold container over 24 h. After urine collection at 24 h, each rat was sacrificed by cervical dislocation; the entire GI tract (including its contents and feces) was excised, transferred into a beaker containing 100 mL methanol, and cut into small pieces using scissors. After manual stirring with a glass rod for 1 min, a 50-μL aliquot of the supernatant was collected. The plasma, urine (Ae24h), and GI tract (GI24h) samples were stored at −80 °C until further LC-MS/MS analysis.
A noncompartmental analysis (WinNonlin ver. 3.1; Certara USA Inc., Princeton, NJ, USA) was performed to determine the following pharmacokinetic parameters: the AUCinf, area under plasma concentration versus time curve from time zero to the last sampling time (AUClast), t1/2, total body clearance (CL), apparent volume of distribution at steady state (Vss), and absolute oral bioavailability (F). The Cmax and time to reach Cmax (Tmax) were directly obtained from the plasma concentration versus time data.

Data set [4] can be described thus: Michaelis–Menten metabolic kinetics in RLM with NADPH and UDPGA. Format: in vitro ADME, rat. Particulars: NADPH and UDPGA/alamethicin. Here is the method: To investigate hepatic phase I enzymes- and UGT-dependent metabolism of acacetin, the disappearance rate of acacetin at concentrations of 1–200 µM in RLM was measured in the presence of both NADPH and UDPGA. The substrate (acacetin) concentration ((S); µM) versus the initial metabolic rate (V; nmol/min/mg protein) profiles were interpreted based on Michaelis–Menten kinetics, and relevant parameters were estimated via nonlinear regression analysis (GraphPad Prism ver. 5.01; GraphPad Software, San Diego, CA, USA) using the following Michaelis–Menten equation: V = Vmax× [S]/Km× [S] where Km and Vmax are the Michaelis–Menten constant and maximal metabolic rate, respectively. The unbound intrinsic metabolic clearance (CLint) was calculated as Vmax/(Km × fuMIC). Furthermore, the disappearance of acacetin (20 μM) in the absence or presence of specific CYP isoform-selective inhibitors in RLM was determined to study the hepatic CYP-mediated metabolism of acacetin. Microsomal incubation mixtures (total volume of 200 μL) were prepared as follows: RLM (0.5 mg/mL microsomal protein), 1 mM NADPH, 10 mM MgCl2, 50 mM potassium phosphate buffer, acacetin, with or without CYP isoform-selective inhibitors (10 μM NF for rat CYP1A, 10-μM SPZ for rat CYP2C, 10-μM QND for rat CYP2D, and 10-μM KCZ for rat CYP3A). At 0 and 5 min after initiating the metabolic reaction, a 100-μL aliquot of the incubation mixture was taken, transferred into a clean 1.5 mL microcentrifuge tube containing 100 μL cold acetonitrile to terminate the metabolic reaction, and finally treated in the same manner as described for the tissue S9 fraction samples.

The nature of data set [5]: Maximum absorbable dose (MAD) estimation. The arrangement: species or system rat. The conditions noted are these: oral dose 100 mg/kg, from measured SIF solubility. An excerpt:
The PAMPA permeability values of acacetin seem to lie approximately in the middle of those of verapamil and ranitidine. […]. Rats have been recognized as a good animal model for predicting the GI absorption of drugs, particularly via passive diffusion, in humans. As a GI absorption prediction model, the maximum absorbable dose (MAD) can estimate a theoretical dose of a drug that can be absorbed across rat intestine, using solubility, intestinal volume, residence time, and intestinal permeability. […] Thus, the SIF solubility of acacetin measured in the present study could not represent an actual solubility of acacetin when it is dispersed in the dosing vehicle and subsequently administered into the GI fluids, which could result in the under-estimation of MAD. Alternatively, an in silico estimate of acacetin solubility in water can be used for the calculation of MAD.

In data set [6] the test system is Caco-2 cell. Further details: method as in PMID 22292790. The conditions noted are these: cited from earlier work.

As to `COc1ccc(-c2cc(=O)c3c(O)cc(O)cc3o2)cc1` [acacetin, Acacetin], the fraction unbound at 10 μM in data set [1] (SGF, 10 μM, read-out: fuSGF (fraction unbound in SGF)) is 0.822 ± 0.026; in data set [1] (SIF, 10 μM, read-out: fuSIF (fraction unbound in SIF)), 0.714 ± 0.009; in data set [1] (Sprague-Dawley, rat, liver microsomes (RLM), RLM, 10 μM, read-out: fuMIC (fraction unbound in microsomes)) it was 0.302 ± 0.021; in data set [1] (Sprague-Dawley, rat, plasma and liver microsomes (RLM), range over plasma and RLM, read-out: Unbound fraction in plasma and RLM), 0.00901 to 0.317; in data set [1] (Sprague-Dawley, rat plasma, 10 μM, read-out: fuP (fraction unbound in plasma)), 0.0102 ± 0.0011; in data set [1] (range over SGF and SIF, read-out: Unbound fraction in SGF and SIF), 0.707 to 0.849. The “Stability (stable = more than 85% remaining)” value in data set [2] (SGF and SIF) is given as “unstable”; in data set [2] (acidic and neutral conditions (pH 1–7)), “unstable”; in data set [2] (basic conditions (pH 9, 11, 13)), “stable”; in data set [2] (plasma and RLM, absence of NADPH and UDPGA/alamethicin), “stable”. Also, the “Initially spiked amount remaining after 24 h” value is recorded as 27.5–62.0% in data set [2] (SGF and SIF, 37 °C); 16.1–35.9% in data set [2] (phosphate buffers, pH range 1–7, 37 °C). Further, in data set [2] (pH 7 phosphate buffer and simulated GI fluids (as worded in abstract)), the “Remaining after 24 h” value is 27.5–62.0%. The GI24h in data set [3] (PO 100 mg/kg, GI tract at 24 h) is 29.3 ± 22.3 % of dose. In data set [3] (PO 100 mg/kg, urine 24 h), the Ae24h is recorded as 0.0601 ± 0.0634 % of dose. Further, the AUC(0-t) in data set [3] (rat, plasma, PO 100 mg/kg) is 12.9 ng·h/mL. In data set [3] (rat, plasma, PO 100 mg/kg), the Cmax was 52.1 ± 50.5 ng/mL. The Tmax in data set [3] (rat, plasma, PO 100 mg/kg, median (range)) is 5 min. Further, the bioavailability in data set [3] (rat, urine, PO 100 mg/kg vs IV 10 mg/kg, from dose-normalized urinary excretion, read-out: F (absolute oral bioavailability)) was 2.34%. Moreover, the Vmax in data set [4] turned out to be 95.0 ± 5.6 nmol/min/mg protein. Moreover, the Km in data set [4] (1–200 µM) came out at 187 ± 14 µM. This compound also came in with a microsomal CLint in data set [4] (Sprague-Dawley, rat, liver microsomes (RLM)) of 508 ± 9 µL/min/mg. In addition, the “MAD as portion of the orally administered dose” value in data set [5] is 0.00361%. Also, the Caco-2 cell permeability in data set [6] was 2.81 × 10^–6 cm/s.
